A short description of data set [1]: Study 1: yolk and plasma lycopene/lutein by UV/VIS spectrophotometer. The data set is classed as in vivo, second cycle laying hens (Hyline W36). As to conditions: Diet 4: 48 mg lycopene + 6.5 mg Lutein/kg diet, 19 d. As to the method:
Lycopene is a carotenoid with potential anti-cancer functions. […] Therefore, second cycle laying hens (Hyline W36) were examined for their ability to absorb dietary lycopene and incorporate lycopene into egg yolks. A completely randomized design was used in which 3 levels of dietary lycopene (0, 1.0 and 5.7 mg/bird*day) or lycopene +lutein (5.7 mg lycopene+0.8 mg lutein/bird*day) were incorporated into the birds normal diet. Birds were housed in commercial cages with ad libitum access to water (n=3 cages/diet; 5 birds/cage), and were fed 120 g diet/bird*day. […] Future trials will examine increased dietary lycopene levels and routes of administration.
Commercial laying hen diet (corn, soybean, from NuWest) was supplemented with lycopene and lutein (DSM). Second Cycle Hyline W36 Hens were housed in standard lay cages. Dependant Variables: Yolks and Plasma. Lipid Extraction was done as previously described (Koutsos at al. 2003 J Nutr 133:1132-1138). A UV/VIS spectrophotometer was use to measure absorbance at 464 nm for Lutein and 352 nm for Lycopene. For Studies 2 and 3, the Roche Colour Score was taken of egg yolks using a blind analysis. The following statistics were calculated: ANOVA for main effect of diet+days on diet and interactions and t-test for differences between means. Results were significant at p<0.05. […]

The nature of data set [2]: Study 2: Roche Yolk Colour Fan. The data set is classed as in vivo, Second Cycle Hyline W36 Hens. As to conditions: 880 or 5140 mg lycopene/kg diet or 7.8 mg Lutein/kg diet dispersed in H2O, 19 d. From the text: (§1) Commercial laying hen diet (corn, soybean, from NuWest) was supplemented with lycopene and lutein (DSM). Second Cycle Hyline W36 Hens were housed in standard lay cages. Dependant Variables: Yolks and Plasma. Lipid Extraction was done as previously described (Koutsos at al. 2003 J Nutr 133:1132-1138). A UV/VIS spectrophotometer was use to measure absorbance at 464 nm for Lutein and 352 nm for Lycopene. For Studies 2 and 3, the Roche Colour Score was taken of egg yolks using a blind analysis. The following statistics were calculated: ANOVA for main effect of diet+days on diet and interactions and t-test for differences between means. Results were significant at p<0.05.
(§2) In Study 2, 5 hens were housed per cage and 3 cages were given treatment for 19 d on a diet at 100 g diet/bird*d. Lycopene and Lutein levels were increased and dispersed in H2O: Diet 1: Negative Control+3000 ml H2O; Diet 2: Negative Control+880 mg lycopene/kg diet +3000 ml H2O; Diet 3: Negative Control+5140 mg lycopene/kg diet+3000 ml H2O; Diet 4: Negative Control+7.8 mg Lutein/kg diet+3000 ml H2O. The Roche Yolk Colour Fan was used (FIG. 4, 5). […] Diet had no effect on Yolk Lutein and/or Lycopene (p>0.20 for all). Diet on Plasma lycopene had no effect (p=0.17). Plasma Lutein+Lycopene had no effect (p=0.07). Diet on Plasma Lutein: (p=0.04).

Data set [3] in a line: Study 2: yolk and plasma lycopene/lutein by UV/VIS spectrophotometer. The data set is classed as in vivo, Second Cycle Hyline W36 Hens.
Text: as §1, §2

For data set [4] the following is noted: egg vs vegetable sources; cited from earlier work.
The nature of data set [5]: Roche yolk color score of eggs from hens fed lycopene (Example 1 trial). In kind it is in vivo, White Leghorn laying hens. As to conditions: 65, 257 or 650 mg lycopene/kg diet vs 0 mg, 15 days, p<0.05. From the text: (§3) The purpose of this trial was to examine the ability of the laying hen to deposit lycopene into the egg yolk for the purpose of supplementing human diets with additional lycopene. Control egg-laying hens were fed a 100 gram per bird basal diet for 15 days described in Table 1. Test hens were fed the basal diet supplemented with varying amounts of lycopene.
The California Polytechnic State University Animal Care and Use Committee approved all protocols. Using a completely randomized design, first-cycle White Leghorn (Hyline W36 strain, 23 wks old) laying hens from the Cal Poly University flock were randomly assigned to one of three dietary lycopene levels. Birds were fed a basal diet formulated to meet or exceed all nutrient requirements for laying hens (National Research Council 1994 Nutrient requirements of Poultry, Ninth Revised Edition, National Academy Press, Washington, D.C.) plus either 0, 65, 257, or 650 mg lycopene/kg diet; the lycopene provided was the all-trans isomer. Dietary levels were chosen based on the amount of lycopene contained in an uncooked 100 g tomato, as well as data concerning the absorption of lutein by laying hens (Leeson, S. and Caston, L. 2004 Poultry Science 83:1709-1712). Lycopene was supplied in a 5% powder form attached to a gelatin molecule. […]

The nature of data set [6]: Yolk lycopene concentration by HPLC in eggs from hens fed lycopene (Example 1 trial). In kind it is in vivo, White Leghorn laying hens.
Text: as §3
The California Polytechnic State University Animal Care and Use Committee approved all protocols. Using a completely randomized design, first-cycle White Leghorn (Hyline W36 strain, 23 wks old) laying hens from the Cal Poly University flock were randomly assigned to one of three dietary lycopene levels. Birds were fed a basal diet formulated to meet or exceed all nutrient requirements for laying hens (National Research Council 1994 Nutrient requirements of Poultry, Ninth Revised Edition, National Academy Press, Washington, D.C.) plus either 0, 65, 257, or 650 mg lycopene/kg diet; the lycopene provided was the all-trans isomer. Dietary levels were chosen based on the amount of lycopene contained in an uncooked 100 g tomato, as well as data concerning the absorption of lutein by laying hens (Leeson, S. and Caston, L. 2004 Poultry Science 83:1709-1712). Lycopene was supplied in a 5% powder form attached to a gelatin molecule. In order for lycopene to be absorbed from this source, water (60° C.) was used to disperse the lycopene prior to dietary addition.
Hens were housed in commercial-type cages (n=3 cages/diet, 4 birds/cage, 135 sq. inches/bird) with ad libitum access to water. Hens were fed their assigned diets at 100 g/bird*day for 15 days. Eggs were gathered daily, and after 15 days of dietary feeding, analysis of egg lycopene levels were completed by Roche color score (a standardized set of color swatches corresponding to a number from 1-15) and by HPLC analysis (DSM International, Basel Switzerland).

Data set [7] is described as follows: Study 1: Roche color fan of egg yolks. In kind it is in vivo, second cycle laying hens (Hyline W36). As to conditions: 0, 1.0 and 5.7 mg lycopene/bird*day, after 18 d.
The nature of data set [8]: Study 3: Roche Yolk Colour Fan. The data set is classed as in vivo, Second Cycle Hyline W36 Hens. As to conditions: control diet vs diets >1285 mg Lycopene, 15 d.
Text: as §1
(§4) In Study 3, 5 hens were housed per cage and 1 cage received treatment for 15 d on diet at 100 g diet/bird*d. Lycopene levels were increased and dispersed in H2O: Diet 1: Negative Control+3000 ml H2O; Diet 2: Negative Control+880 mg lycopene/kg diet+3000 ml H2O; Diet 3: Negative Control+1285 mg lycopene/kg diet+3000 ml H2O; Diet 4: Negative Control +2570 mg lycopene/kg diet+3000 ml H2O; Diet 5: Negative Control+3855 mg lycopene/kg diet+3000 ml H2O; Diet 6: Negative Control+5140 mg lycopene/kg diet+3000 ml H2O; Diet 7: Negative Control+6425 mg lycopene/kg diet+3000 ml H2O; Diet 8: Diet 5+7.8 mg Lutein/kg diet; Diet 9: Diet 7+7.8 mg Lutein/kg diet.

Data set [9] in a line: Study 3: yolk and plasma lycopene/lutein by UV/VIS spectrophotometer. In kind it is in vivo, Second Cycle Hyline W36 Hens.
Text: as §1, §4

The conditions of data set [10]: acute toxicity, mice; cited from earlier work.
The conditions of data set [11]: acute toxicity, rats; cited from earlier work.

Like-named read-outs stand apart in the source and are kept apart here.

`CC1=C[C@H](O)CC(C)(C)[C@H]1/C=C/C(C)=C/C=C/C(C)=C/C=C/C=C(C)/C=C/C=C(C)/C=C/C1=C(C)C[C@@H](O)CC1(C)C` [lutein]: the Yolk lutein result in data set [1] (p<0.05) was “increased”; in data set [3] (effect of diet, Study 2, p>0.20), “no effect”. Further, the Plasma lutein result in data set [1] (p=0.36) is “no increase”. Also, in [2], the “Roche Colour Fan score” value is “no effect”. Also, in data set [4], the “Absorbance from egg relative to absorbance from vegetable sources” value is recorded as “approximately 2.12 times”.
For `CC(C)=CCC/C(C)=C/C=C/C(C)=C/C=C/C(C)=C/C=C/C=C(C)/C=C/C=C(C)/C=C/C=C(\C)CCC=C(C)C` [lycopene], the “Roche yolk color score” value in data set [5] is reported as “significantly greater yolk color score”. In [6] (257 or 650 mg lycopene/kg diet vs 65 mg/kg diet, 15 days, p<0.05), the “Yolk lycopene levels (HPLC)” value was “significantly greater lycopene levels”. In addition, the concentration at 15 days in [6] (female, White Leghorn (Hyline W36), chicken (laying hen), egg yolk, oral, based upon HPLC data, large egg, read-out: Maximal concentration of yolk lycopene (converted)) is 4710 ng/g. Besides, the “Dietary level for optimal lycopene incorporation into egg (regression analysis)” value in data set [6] (regression of yolk lycopene on dietary lycopene) is listed as 420 mg/kg diet. In data set [7], the “Egg yolk pigmentation (Roche color fan)” value is “no detectable change in pigmentation”. For the same molecule, the “Roche Colour Fan score” value in [2] was 5140 mg>0 mg. Moreover, the “Plasma Lutein+Lycopene” value in [3] (in vivo) is “no effect”. In data set [3] (in vivo), the Plasma lycopene entry is reported as “no effect”. Moreover, the “Yolk Lycopene” value in [3] (in vivo) is “no effect”; in [9] (effect of diet, Study 3, p<0.01, Diets 2, 3 = 880, 1285 mg lycopene/kg diet), “Diet 2, 3>1, 4, 5, 6, 8, 9”. Besides, in data set [8], the “Yolk pigment (Roche color scores)” value is on record as “consistent difference in yolk pigment”. For the same molecule, in data set [9] (effect of diet, Study 3, p=0.94), the “Yolk Lutein+Lycopene” value was “no effect”. Besides, the “Plasma Lutein and/or Lycopene” value in data set [9] (in vivo) is “no effect”. Further, the LD50 in data set [10] is listed as 3000 mg lycopene/kg body weight; in data set [11], 10,000 mg/kg body weight.

Source of the values: patent US20090214696A1, “Lycopene Incorporation Into Egg Yolks” (priority 2005, published 2009).
